Measured values: US8420820B2, “Pyrrolopyridinylpyrimidin-2-ylamine derivatives” (Merck Patent GmbH, priority 2008, dated 2013)

How the values were obtained:
PDK1 = target: T1, PDK1 (Homo sapiens, UniProt O15530); assay: Test for the inhibition of PDK1 (flashplate, 33P-ATP); assay type: biochemical; details: His6-PDK1 3.4 nM, 4 μM ATP, 30° C., 60 min
T1 construct: His6 (N)
Method: The experimental batches are carried out in a flashplate system with 384 wells/microtitration plate.
In each case, the PDK1 sample His6-PDK1(SEQ ID NO: 2)(1-50)(3.4 nM), the PDK1 substrate biotin-bA-bA-[…] (SEQ ID NO: 3) (400 nM), 4 μM ATP (with 0.2 μCi of ^33P-ATP/well) and the test substance in 50 μl of conventional experimental solution per well are incubated at 30° C. for 60 min. The test substances are employed in corresponding concentrations (if desired in a dilution series). The control is carried out without test substance. The reaction is stopped using standard methods and washed. The activity of the kinase is measured via the incorporated radioactivity in top count. In order to determine the non-specific kinase reaction (blank value), the experimental batches are carried out in the presence of 100 nM staurosporin.
The radioactivity (decompositions per minute) of the blank value (no use of test substance in the presence of staurosporin) is subtracted from all other radioactivity values. The controls (kinase activity without test substance) are set equal to 100 percent and all other radioactivity values (after subtracting the blank value) are expressed set in relation thereto (for example in % of the control).
IC50 values (50% inhibition) are determined with the aid of statistics programmes, such as, for example, RS1.

[1] = system: PDK1 kinase activity in PC3 cells (phospho-T308-PKB); assay: Cellular testing of PDK1 kinase inhibitors in PC3 cells (Luminex, phospho-T308-PKB); assay type: cell-based; details: Homo sapiens, PC-3, 0.5 h, 30 min with test substance, serum-free, phospho-T308-PKB by Luminex, read-out: IC50 [PC3 P-PKB Thr308]
Method: Method for the Cellular Testing of PDK1 Kinase Inhibitors in PC3 Cells.
The cellular assay for the determination of the PDK1 kinase activity is carried out as a Luminex assay in the 96-well format. PC3 cells are sown at 20,000 cells per well in 100 μl of medium (45% of […]/45% of Ham's F12/10% of FCS) and incubated on the following day for 30 min with a serial dilution of the test substance (7 concentrations) under serum-free conditions. The cells are subsequently lysed using 90 μl of lysis buffer (20 mM tris/HCl pH 8.0, 150 mM NaCl, 1% of NP40, 10% of glycerol, 1% of phosphatase inhibitor I, 1% of phosphatase inhibitor II, 0.1% of protease inhibitor cocktail III, 0.01% of benzonase) per well, and the lysates are separated off from insoluble cell constituents by means of centrifugation through a 96-well filter plate (0.65 μm). The lysates are incubated overnight at 4° C. with shaking with Luminex beads to which an anti-total PKB antibody is coupled. The detection is carried out on the following day by addition of a phospho-T308-PKB antibody and a species-specific […] secondary antibody. The detection of phospho-T308-PKB is carried out by measurement in a Luminex100 instrument by determination of 100 events per cavity in a measurement time of 60 sec. As pharmacological blank, the signals obtained from cells which have been treated with 10 μM staurosporin are subtracted from all other batches. The control value used for maximum phosphorylation of PKB on T308 are the signals from cells which have only been treated with the solvent (0.3% of DMSO). The values of the batches treated with test substance are calculated therefrom as percentage of control, and IC50 values are determined by means of RS1.

T1 sequence (O15530 51-556): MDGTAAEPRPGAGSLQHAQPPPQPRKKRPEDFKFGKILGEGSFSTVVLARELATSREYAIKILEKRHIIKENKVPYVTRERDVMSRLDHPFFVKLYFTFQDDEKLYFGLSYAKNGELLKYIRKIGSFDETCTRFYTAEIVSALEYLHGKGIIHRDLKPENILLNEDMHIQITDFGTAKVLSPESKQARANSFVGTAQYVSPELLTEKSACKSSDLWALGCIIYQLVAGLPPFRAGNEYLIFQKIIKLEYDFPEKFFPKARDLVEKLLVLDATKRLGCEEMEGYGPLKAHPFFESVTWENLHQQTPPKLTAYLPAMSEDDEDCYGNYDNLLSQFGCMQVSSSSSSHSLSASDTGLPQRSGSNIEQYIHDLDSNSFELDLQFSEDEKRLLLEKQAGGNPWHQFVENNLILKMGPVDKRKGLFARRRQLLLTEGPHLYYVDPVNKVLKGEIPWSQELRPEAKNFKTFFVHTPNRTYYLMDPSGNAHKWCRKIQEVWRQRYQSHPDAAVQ

Compound | IC50 (PDK1) [nM] | IC50 [1] [µM]
CCCCc1cc(-c2c[nH]c3ncc(-c4cnn(CCN(C)C)c4)cc23)nc(N)n1 [Compound A85, 4-Butyl-6-{5-[1-(2-dimethylaminoethyl)-1H-pyrazol-4-yl]-1H-pyrrolo[2,3-b]-pyridin-3-yl}pyrimidin-2-ylamine] | 10 to 1000 | 1 to 10
CCCC(O)c1cc(-c2c[nH]c3ncc(-c4cnn(C(C)C)c4)cc23)nc(N)n1 (centres unmarked) [Compound A35, 1-{2-Amino-6-[5-(1-isopropyl-1H-pyrazol-4-yl)-1H-pyrrolo[2,3-b]pyridin-3-yl]-pyrimidin-4-yl}butan-1-ol] | 10 to 1000 | 1 to 10
CCc1cc(-c2c[nH]c3ncc(-c4cnn(Cc5cccc(F)c5)c4)cc23)nc(N)n1 [Compound A98, 4-Ethyl-6-{5-[1-(3-fluorobenzyl)-1H-pyrazol-4-yl]-1H-pyrrolo[2,3-b]pyridin-3-yl}pyrimidin-2-ylamine] | 10 to 1000 | 1 to 10
CCc1cc(-c2c[nH]c3ncc(-c4cnn(CC(=O)N5CCCc6ccccc65)c4)cc23)nc(N)n1 [Compound A128, 2-{4-[3-(2-Amino-6-ethylpyrimidin-4-yl)-1H-pyrrolo[2,3-b]pyridin-5-yl]pyrazol-1-yl}-1-(3,4-dihydro-2H-quinolin-1-yl)ethanone] | 10 to 1000 | 1 to 10
CCc1cc(-c2c[nH]c3ncc(-c4cnn(CC(=O)N5CCOCC5)c4)cc23)nc(N)n1 [Compound A32, 2-{4-[3-(2-Amino-6-ethylpyrimidin-4-yl)-1H-pyrrolo[2,3-b]pyridin-5-yl]pyrazol-1-yl}-1-morpholin-4-ylethanone] | 10 to 1000 | 10 to 20
CC(C)n1cc(-c2cnc3[nH]cc(-c4cc(CCCCO)nc(N)n4)c3c2)cn1 [Compound A40, 4-{2-Amino-6-[5-(1-isopropyl-1H-pyrazol-4-yl)-1H-pyrrolo[2,3-b]pyridin-3-yl]-pyrimidin-4-yl}butan-1-ol] | 10 to 1000 | 1 to 10
CC(C)n1cc(-c2cnc3[nH]cc(-c4cc(C(O)c5ccccc5)nc(N)n4)c3c2)cn1 (centres unmarked) [Compound A115, {2-Amino-6-[5-(1-isopropyl-1H-pyrazol-4-yl)-1H-pyrrolo[2,3-b]pyridin-3-yl]-pyrimidin-4-yl}phenylmethanol] | 1000 to 10000 | 10 to 20
CC(C)n1cc(-c2cnc3[nH]cc(-c4cc(C5(O)CCCCC5)nc(N)n4)c3c2)cn1 [Compound A53, 1-{2-Amino-6-[5-(1-isopropyl-1H-pyrazol-4-yl)-1H-pyrrolo[2,3-b]pyridin-3-yl]-pyrimidin-4-yl}cyclohexanol] | 10 to 1000 | 10 to 20
Nc1nc(CCN2CCOCC2)cc(-c2c[nH]c3ncccc23)n1 [Compound A49, 4-(2-Morpholin-4-ylethyl)-6-(1H-pyrrolo[2,3-b]pyridin-3-yl)pyrimidin-2-ylamine] | 1000 to 10000 | 10 to 20
CC(C)N1CCC(O)(c2cc(-c3c[nH]c4ncc(-c5cnn(C(C)C)c5)cc34)nc(N)n2)CC1 [Compound A114, 4-{2-Amino-6-[5-(1-isopropyl-1H-pyrazol-4-yl)-1H-pyrrolo[2,3-b]pyridin-3-yl]-pyrimidin-4-yl}-1-isopropylpiperidin-4-ol] | 10 to 1000 | 10 to 20
CC(C)n1cc(-c2cnc3[nH]cc(-c4cc(CCn5ccnc5)nc(N)n4)c3c2)cn1 [Compound A110, 4-(2-Imidazol-1-ylethyl)-6-[5-(1-isopropyl-1H-pyrazol-4-yl)-1H-pyrrolo[2,3-b]-pyridin-3-yl]pyrimidin-2-ylamine] | 10 to 1000 | 10 to 20
CCc1cc(-c2c[nH]c3ncc(-c4cnn(CC(=O)N5CCN(C)CC5)c4)cc23)nc(N)n1 [Compound A29, 2-{4-[3-(2-Amino-6-ethylpyrimidin-4-yl)-1H-pyrrolo[2,3-b]pyridin-5-yl]pyrazol-1-yl}-1-(4-methylpiperazin-1-yl)ethanone] | 10 to 1000 | 10 to 20
CC(C)CC(O)c1cc(-c2c[nH]c3ncc(-c4cnn(C(C)C)c4)cc23)nc(N)n1 (centres unmarked) [Compound A104, 1-{2-Amino-6-[5-(1-isopropyl-1H-pyrazol-4-yl)-1H-pyrrolo[2,3-b]pyridin-3-yl]-pyrimidin-4-yl}-3-methylbutan-1-ol] | 10 to 1000 | 1 to 10
CCc1cc(-c2c[nH]c3ncc(-c4cnn(C(C)C(=O)Nc5ccc6[nH]ccc6c5)c4)cc23)nc(N)n1 (centres unmarked) [Compound A121, 2-{4-[3-(2-Amino-6-ethylpyrimidin-4-yl)-1H-pyrrolo[2,3-b]pyridin-5-yl]pyrazol-1-yl}-N-(1H-indol-5-yl)propionamide] | 10 to 1000 | 1 to 10
CCc1cc(-c2c[nH]c3ncc(-c4cnn(C5CCN(C(C)=O)CC5)c4)cc23)nc(N)n1 [Compound A46, 1-(4-{4-[3-(2-Amino-6-ethylpyrimidin-4-yl)-1H-pyrrolo[2,3-b]pyridin-5-yl]-pyrazol-1-yl}piperidin-1-yl)ethanone] | 10 to 1000 | 10 to 20
CC(C)n1cc(-c2cnc3[nH]cc(-c4cc(CCCn5ccnc5)nc(N)n4)c3c2)cn1 [Compound A108, 4-(3-Imidazol-1-ylpropyl)-6-[5-(1-isopropyl-1H-pyrazol-4-yl)-1H-pyrrolo-[2,3-b]pyridin-3-yl]pyrimidin-2-ylamine] | 10 to 1000 | 10 to 20
Nc1nc(-c2c[nH]c3ncccc23)cc(C2CCCCC2)n1 [Compound A105, 4-Cyclohexyl-6-(1H-pyrrolo[2,3-b]pyridin-3-yl)pyrimidin-2-ylamine] | 10 to 1000 | 10 to 20
CC(C)n1cc(-c2cnc3[nH]cc(-c4cc(C5(O)CCCC5)nc(N)n4)c3c2)cn1 [Compound A54, 1-{2-Amino-6-[5-(1-isopropyl-1H-pyrazol-4-yl)-1H-pyrrolo[2,3-b]pyridin-3-yl]-pyrimidin-4-yl}cyclopentanol] | 10 to 1000 | 10 to 20
CCc1cc(-c2c[nH]c3ncc(-c4cnn(C5CCN(S(C)(=O)=O)CC5)c4)cc23)nc(N)n1 [Compound A44, 4-Ethyl-6-{5-[1-(1-methanesulfonylpiperidin-4-yl)-1H-pyrazol-4-yl]-1H-pyrrolo[2,3-b]pyridin-3-yl}pyrimidin-2-ylamine] | 10 to 1000 | 1 to 10
